Patent US20030125234A1, “Alteration of protein stability” (priority 2001, published 2003)
“Also recorded” adds a separate entry of the source.

Assays:
Assay type in all cases: biochemical
Bovine insulin = target: T1, Bovine insulin (Bos taurus, UniProt P01317); test: Insulin aggregation (turbidity at 360 nm) induced by DTT; conditions: for inhibition index: Insulin 0.25 mg/mL, 25° C., DTT, compound 100×, standard deviation in parenthesis
T1 construct: purchased Sigma, St. Louis, Mo., USA
Method: (§1) Bovine insulin [Sigma, St. Louis, Mo., USA] was dissolved in phosphate saline (PBS) (50 mM sodium biphosphate, 100 mM sodium chloride), pH 7.0, bovine alpha-lactalbumin [Sigma] in 50 mM sodium phosphate, 100 mM sodium chloride and 2 mM EDTA, pH 6.2, chicken egg white lysozyme [Sigma] in 100 mM Tris, 1 mM EDTA, pH 8.2, human acidic fibroblast growth factor (FGF-1) in 6.2 mM sodium biphosphate, 120 mM sodium chloride, pH 7.2, porcine somatotropin (pST) [provided by Pfizer, Inc., Groton, Conn., USA] in 10 mM phosphate, pH 6. 1, human apolactoferrin (HLF) [Sigma] in 20 mM HEPES, 154 mM NaCl, pH 7.4, porcine heart citrate synthase (CS) in 40 mM HEPES, 50 mM KCl, 10 mM (NH4)2SO4 mM potassium acetate, pH 7.8, and yeast alcohol dehydrogenase (ADH) [Sigma] in pH 7.0 PBS. Selection of buffer solutions was based on an extensive series of preliminary studies to obtain appropriate insolubilization kinetics as described below.
(§2) Copper O-phenanthroline (1,10-phenanthroline) was prepared by mixing copper sulfate hexahydrate [Fisher] and o-phenanthroline [Sigma] in a 1:2 ratio. 1 M Dithiothreitol (DTT) was prepared at pH 7.0 PBS. Polyethylene glycol (M.W. 8000, Union Carbide, Danbury, Conn., USA) (PEG) was prepared at 20 mg/mL in 10 mM phosphate, pH 6.1.
(§3) The following compounds were obtained from Sigma and used without further purification: oxalic acid, sodium malonate, succinic acid, glutaric acid, adipic acid, pimelic acid, suberic acid, azelaic acid, guanidine hydrochloride, ammonium formate, beta-alanine, 4-aminobutyric acid, 5-aminovaleric acid, 6-aminocaproic acid, 7-aminoheptanoic acid, hydrazine, ethylenediamine, 1,3-diaminopropane, 1,4-diaminobutane, 1,5-diaminopentane, 1,6-diaminohexane, 1,7-diaminoheptane, Glu-Glu, Glu-Lys, Lys-Lys, diglycine, triglycine, tetraglycine, pentaglycine, and hexaglycine. […] Triglycine and tetraglycine were dissolved in pH 8.6 PBS, while pentaglycine and hexaglycine were dissolved in pH 10.6 PBS.
(§4) Each was either dissolved in pH 7.0 PBS, or pH 6.1 10 mM phosphate, and adjusted to the same pH.
(§5) Protein aggregation was monitored for 1 hour at 360 nm using an HP8453 UV-visible spectrophotometer system [Hewlett Packard, Germany]. […] Insulin (0.25 mg/mL (4.39E-5 M)) aggregation was monitored at 25° C. after addition of potential inhibitors and 20 μL of 1 M DTT (1.27E-4 M). Alpha-lactabumin (0.4 mg/mL (2.82E-5 M)) aggregation was monitored at 37° C. in the presence of 20 μL of 1 M DTT (1.27E-4 M). Lysozyme (0.4 mg/mL (2.86E-5 M)) aggregation was monitored at 25° C. in the presence of 20 μL of 1 M DTT (1.27E-4 M). FGF-1 (50 μg/mL (3.12E-6 M)) aggregation was monitored at 50° C. Porcine somatotropin (1.27 mg/mL (5.76E-5 M)) aggregation was monitored at 60° C. in the presence of PEG 8000 (20 mg/mL) which was included to enhance the protein association process through a simple exclusion volume effect. HLF (0.4 mg/mL (5.23E-6 M)) aggregation was monitored at 43° C. in the presence of 1.27E-4 M DTT. Citrate synthase (96 μg/mL (9.80E-7 M)) aggregation was monitored at45° C. ADH (1 mg/mL (7.14E-6 M)) was monitored at 37° C. following the addition of 7.76E-5 M Cu(OP)2. Aggregation was compared to protein in the absence of the particular dipolar compound. After stirring, experiments were initiated by the addition of proteins followed by stressing reagents to 1 cm pathlength cuvettes employing a seven-position thermostatted sample holder that was cycled at 30-second intervals. Alternatively, a microtiter plate reader was employed under the same conditions in a 96 well format.
(§6) All optical density (OD)360nm versus time results were exported into Excel [Microsoft] for data analysis.

bovine alpha-lactalbumin = target: T2, bovine alpha-lactalbumin (Bos taurus, UniProt P00711); test: Alpha-lactalbumin aggregation (turbidity at 360 nm) induced by DTT; conditions: for inhibition index: α Lactalbumin 0.4 mg/mL, 37° C., DTT, compound 1,000×, standard deviation in parenthesis
T2 construct: purchased Sigma
T2 sequence (P00711 20-142): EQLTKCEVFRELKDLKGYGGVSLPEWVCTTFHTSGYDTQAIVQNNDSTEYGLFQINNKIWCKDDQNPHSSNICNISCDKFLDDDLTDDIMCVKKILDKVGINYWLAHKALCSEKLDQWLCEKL
Method: as §1, §2, §3, §4, §5, §6

[1] = target: T3, yeast alcohol dehydrogenase (ADH) (Saccharomyces cerevisiae, UniProt P00330); test: ADH oxidation-induced aggregation (turbidity at 360 nm), Cu(OP)2; conditions: for inhibition index: ADH 1 mg/mL, 37° C., Cu(OP)2, compound 10,000X molar excess, Infinite = complete inhibition of aggregation over one hour; for inhibition of ADH aggregation, in words: FIG. 1
T3 construct: purchased Sigma
T3 sequence (P00330 2-348 limits assumed): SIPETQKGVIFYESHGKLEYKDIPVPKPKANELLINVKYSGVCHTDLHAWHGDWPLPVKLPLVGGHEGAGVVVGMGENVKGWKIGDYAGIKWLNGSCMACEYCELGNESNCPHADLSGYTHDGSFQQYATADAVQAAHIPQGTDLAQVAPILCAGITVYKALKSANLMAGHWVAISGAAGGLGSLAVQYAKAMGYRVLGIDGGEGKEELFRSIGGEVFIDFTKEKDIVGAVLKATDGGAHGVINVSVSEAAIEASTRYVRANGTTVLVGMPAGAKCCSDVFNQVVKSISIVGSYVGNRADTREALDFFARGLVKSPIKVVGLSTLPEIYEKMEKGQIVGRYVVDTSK
Method: as §1, §2, §3, §4, §5, §6

[2] = target: T4, human apolactoferrin (HLF) (Homo sapiens, UniProt P02788); test: HLF aggregation (turbidity at 360 nm) induced by DTT; conditions: for inhibition index: HLF 0.4 mg/mL, 43° C., DTT, second HLF column, head 10,000×, standard deviation in parenthesis
T4 construct: purchased Sigma
Method: as §1, §2, §3, §4, §5, §6

[3] = target: T5, porcine somatotropin (pST) (Sus scrofa, UniProt P01248); test: Porcine somatotropin aggregation (turbidity at 360 nm) with PEG 8000; conditions: pST 1.27 mg/mL, 60° C., standard deviation in parenthesis
T5 construct: purchased Pfizer, Inc., Groton, Conn., USA (provided, not bought)
T5 sequence (P01248 27-216): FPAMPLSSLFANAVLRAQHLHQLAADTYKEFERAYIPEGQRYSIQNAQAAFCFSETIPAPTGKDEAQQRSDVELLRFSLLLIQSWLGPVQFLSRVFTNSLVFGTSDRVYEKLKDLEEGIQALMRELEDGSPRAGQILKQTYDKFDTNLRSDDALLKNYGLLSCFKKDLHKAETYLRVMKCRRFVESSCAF
Method: as §1, §2, §3, §4, §5, §6

[4] = target: T6, chicken egg white lysozyme (Gallus gallus, UniProt P00698); test: Lysozyme aggregation (turbidity at 360 nm) induced by DTT; conditions: for inhibition index: Lysozyme 0.4 mg/mL, 25° C., DTT, compound 1,000×, standard deviation in parenthesis
T6 construct: chicken egg white lysozyme [Sigma]; purchased Sigma; host or cells: egg white
Method: as §1, §2, §3, §4, §5, §6

T6 sequence (P00698 19-147): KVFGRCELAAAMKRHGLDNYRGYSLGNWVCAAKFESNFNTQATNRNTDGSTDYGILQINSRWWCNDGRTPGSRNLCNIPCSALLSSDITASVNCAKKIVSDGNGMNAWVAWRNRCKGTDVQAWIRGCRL
T4 sequence (P02788 20-710): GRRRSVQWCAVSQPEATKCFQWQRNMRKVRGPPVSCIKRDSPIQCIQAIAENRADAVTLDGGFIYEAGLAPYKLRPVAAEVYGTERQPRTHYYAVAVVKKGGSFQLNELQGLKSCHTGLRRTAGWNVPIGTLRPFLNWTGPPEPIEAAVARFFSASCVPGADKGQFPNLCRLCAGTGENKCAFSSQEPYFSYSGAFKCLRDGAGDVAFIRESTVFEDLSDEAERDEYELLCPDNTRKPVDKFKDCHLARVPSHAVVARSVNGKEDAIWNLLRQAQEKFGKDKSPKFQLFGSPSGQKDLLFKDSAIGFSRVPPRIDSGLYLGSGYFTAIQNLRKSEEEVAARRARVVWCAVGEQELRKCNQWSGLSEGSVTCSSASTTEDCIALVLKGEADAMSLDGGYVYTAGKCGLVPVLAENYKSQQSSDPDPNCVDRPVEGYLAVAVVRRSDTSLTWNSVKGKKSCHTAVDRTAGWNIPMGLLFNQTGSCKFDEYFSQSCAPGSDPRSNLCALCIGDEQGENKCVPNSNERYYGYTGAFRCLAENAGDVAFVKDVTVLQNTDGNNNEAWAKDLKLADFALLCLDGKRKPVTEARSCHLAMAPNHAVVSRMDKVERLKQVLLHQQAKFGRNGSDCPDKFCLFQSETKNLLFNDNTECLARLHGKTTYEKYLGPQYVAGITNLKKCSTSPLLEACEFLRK
T1 sequence (P01317 25-54 limits assumed): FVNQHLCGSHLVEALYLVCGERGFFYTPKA
T1 sequence (P01317 85-105 limits assumed): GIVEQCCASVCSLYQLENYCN

NCCCN [1,3-diaminopropane]
inhibition index (Bovine insulin): 1.3 (0.3)
inhibition index (bovine alpha-lactalbumin): 0.9 (0.3)
inhibition index [1]: 0.7 (0.1)
inhibition index [2]: 31.5 (12.0)
inhibition index ([3]; compound 100X): 0.6 (0.0)
inhibition index ([3]; compound 2,000X): 1.7 (0.2)
inhibition index [4]: 2.7 (0.4)

NCCCCN [1,4-diaminobutane]
inhibition index (Bovine insulin): 1.4 (0.4)
inhibition index (bovine alpha-lactalbumin): 1.0 (0.2)
inhibition index [1]: 0.8 (0.1)
inhibition index [2]: 34.5 (13.0)
inhibition index ([3]; compound 100X): 0.6 (0.1)
inhibition index ([3]; compound 2,000X): 1.4 (0.4)
inhibition index [4]: 1.6 (0.2)

NCCCCCN [1,5-diaminopentane]
inhibition index (Bovine insulin): 1.5 (0.6)
inhibition index (bovine alpha-lactalbumin): 0.9 (0.0)
inhibition index [1]: 0.9 (0.0)
inhibition index [2]: 28.8 (13.3)
inhibition index ([3]; compound 100X): 0.8 (0.3)
inhibition index ([3]; compound 2,000X): 1.7 (0.4)
inhibition index [4]: 1.3 (0.3)

NCCCCCCN [1,6-diaminohexane]
inhibition index (Bovine insulin): 1.5 (0.3)
inhibition index (bovine alpha-lactalbumin): 1.3 (0.4)
inhibition index [1]: 0.8 (0.0)
inhibition index [2]: 18.0 (4.9)
inhibition index ([3]; compound 100X): 0.6 (0.1)
inhibition index ([3]; compound 2,000X): 1.9 (0.2)
inhibition index [4]: 1.0 (0.1)

NCCCCCCCN [1,7-diaminoheptane]
inhibition of insulin aggregation, in words (Bovine insulin): weak inhibitions
inhibition index (Bovine insulin): 2.7 (1.0)
inhibition index (bovine alpha-lactalbumin): 1.8 (0.7)
inhibition index [1]: 0.6 (0.1)
inhibition index [2]: 11.0 (2.1)
inhibition index ([3]; compound 100X): 0.7 (0.0)
inhibition index ([3]; compound 2,000X): 1.6( 0.7)
inhibition index [4]: 1.0 (0.3)

NCCCC(=O)O [4-aminobuytrate, 4-aminobutyric acid]
inhibition index (Bovine insulin): 1.2 (0.3)
inhibition index (bovine alpha-lactalbumin): 2.0 (0.8)
inhibition index [1]: 2.0 (0.1)
inhibition index [2]: 9.5 (1.9)
inhibition index ([3]; compound 100X): 0.3 (0.0)
inhibition index ([3]; compound 2,000X): 1.1 (0.2)
inhibition index [4]: 1.4 (0.4)

NCCCCC(=O)O [5-aminovalerate, 5-aminovaleric acid]
inhibition index (Bovine insulin): 1.2 (0.1)
inhibition index (bovine alpha-lactalbumin): 2.1 (0.8)
inhibition index [1]: 2.7 (0.9)
inhibition index [2]: 8.4 (2.6)
inhibition index ([3]; compound 100X): 0.4 (0.0)
inhibition index ([3]; compound 2,000X): 0.7 (0.1)
inhibition index [4]: 1.5 (0.4)

NCCCCCC(=O)O [6-aminocaproate, 6-aminocaproic acid]
inhibition index (Bovine insulin): 1.4 (0.2)
inhibition index (bovine alpha-lactalbumin): 2.3 (0.6)
inhibition index [1]: 3.2 (0.3)
inhibition index [2]: 7.9 (3.4)
inhibition index ([3]; compound 100X): 0.5 (0.1)
inhibition index ([3]; compound 2,000X): 1.2 (0.2)
inhibition index [4]: 0.8 (0.2)

NCCCCCCC(=O)O [7-aminoheptanoate, 7-aminoheptanoic acid]
inhibition of insulin aggregation, in words (Bovine insulin): weak inhibitions
inhibition index (Bovine insulin): 2.4 (1.0)
inhibition of α-lactalbumin aggregation, in words (bovine alpha-lactalbumin): Potent inhibitors
inhibition index (bovine alpha-lactalbumin): 3.9 (2.1)
inhibition index [1]: 4.9 (0.5)
inhibition index [2]: 4.7 (0.7)
inhibition index ([3]; compound 100X): 0.4 (0.0)
inhibition index ([3]; compound 2,000X): 1.6 (0.2)
inhibition index [4]: 1.3 (0.2)

O=C(O)CCCCC(=O)O [adipate, adipic acid]
inhibition index (Bovine insulin): 1.2 (0.7)
inhibition index (bovine alpha-lactalbumin): 1.2 (0.3)
inhibition index [1]: 4.9 (0.9)
inhibition index [2]: 113.0
inhibition index ([3]; compound 100X): 0.9 (0.1)
inhibition index ([3]; compound 2,000X): 3.9 (0.7)
inhibition index [4]: 1.4 (0.8)

NCCC(=O)O [beta-alanine]
inhibition index (Bovine insulin): 1.1 (0.1)
inhibition index (bovine alpha-lactalbumin): 2.1 (0.4)
inhibition index [1]: 2.2 (0.3)
inhibition of lactoferrin (HLF) aggregation, in words [2]: effective inhibitors
inhibition index [2]: 24.2 (4.4)
inhibition index ([3]; compound 100X): 0.4 (0.1)
inhibition index ([3]; compound 2,000X): 0.8 (0.1)
inhibition index [4]: 1.1 (0.3)

NCCN [ethylenediamine]
inhibition index (Bovine insulin): 0.9 (0.3)
inhibition index (bovine alpha-lactalbumin): 0.7 (0.4)
inhibition index [1]: 202.6 (69.7)
inhibition of ADH aggregation, in words [1]: effective inhibitors
inhibition index [2]: 44.5 (13.9)
inhibition index ([3]; compound 100X): 0.7 (0.0)
inhibition index ([3]; compound 2,000X): 1.3 (0.1)
inhibition of lysozyme aggregation, in words [4]: effective inhibitors; also recorded: strongly inhibited
inhibition index [4]: 70.2 (6.8)

O=C(O)CCCC(=O)O [glutarate, glutaric acid]
inhibition index (Bovine insulin): 1.0 (0.2)
inhibition index (bovine alpha-lactalbumin): 1.1 (0.2)
inhibition index [1]: 1.8 (0.4)
inhibition index [2]: 49.7 (28.9)
inhibition index ([3]; compound 100X): 0.9 (0.1)
inhibition index ([3]; compound 2,000X): 3.1 (0.7)
inhibition index [4]: 1.2 (0.3)

NCC(=O)O [glycine]
inhibition index (Bovine insulin): 1.0 (0.3)
inhibition index (bovine alpha-lactalbumin): 1.4 (0.3)
inhibition index [1]: 54.3 (4.5)
inhibition of ADH aggregation, in words [1]: Potent inhibition; also recorded: effective inhibitors
inhibition index [2]: 1.5 (0.1)
inhibition index ([3]; compound 100X): 0.4 (0.1)
inhibition index ([3]; compound 2,000X): 1.2 (0.2)
inhibition index [4]: 1.0 (0.2)

O=C([O-])CC(=O)[O-].[Na+].[Na+] [malonate, sodium malonate]
inhibition index (Bovine insulin): 1.2 (0.5)
inhibition index (bovine alpha-lactalbumin): 1.8 (0.1)
inhibition index [1]: 18.9 (6.6)
inhibition index [2]: 1714.1
inhibition index ([3]; compound 100X): 0.9 (0.1)
inhibition index ([3]; compound 2,000X): 4.9 (0.5)
inhibition index [4]: 1.5 (0.4)
